Results from patent US9884866B2, “Immunomodulators and immunomodulator conjugates” (REGENTS OF THE UNIVERSITY OF MINNESOTA, priority 2014, dated 2018).

Tested on: Bone marrow derived dendritic cells (BMDC)
Assay: Measurement of proinflammatory cytokines with cytometric bead assay in BMDC
Assay type: cell-based, C57BL/6 mice
Conditions: BMDC stimulated with 30 μM of compound for 3 days; supernatant
Description: Measurement of Proimflammatory Cytokines with Cytometric Bead Assay:
Bone marrow derived dendritic cells (BMDC) were generated by isolating a single cell suspension of marrow from the femur of C57BL/6 mice (6-8 weeks of age). Red blood cells were lysed with 0.83% NH4Cl, 0.1% KHCO3 and […] cells were seeded in each of well of a 6 well plate in complete RPMI media (Invitrogen, Grand Island, N.Y.), supplemented with mouse 20 ng/ml Granulocyte-Macrophage Colony Stimulating Factor (PeproTech, Rocky Hill, N.J.). After 6 days after culture, BMDC were stimulated with 30 μM of compound for 3 days. 25 μL of supernatant was then removed and assayed for TNFα, IL-12p40, IL-1β and IL-10 using a flow cytometric bead array according to the manufacturers' instructions (BD Bioscience, San Jose, Calif.). Controls were performed using the addition of media and carrier with no drug. Flow cytometry was performed on a FACS canto-II (BD Bioscience) and data were analyzed using Flowjo software (Tree Star, Inc. Ashland, Oreg.).

Row | SMILES | IL-1b | IL-10 | IL-12/23p40 | TNF
1 | CCCCc1nc2c(N)nc3cc(NS(=O)(=O)c4ccccc4)ccc3c2n1CC(C)O (centres unmarked) [Compound 543] | 128 ± 13 pg/mL | 151 ± 24 pg/mL | 57 ± 8 pg/mL | 725 ± 77 pg/mL
2 | CCCCc1nc2c(N)nc3cc(S(=O)(=O)c4ccccc4)ccc3c2n1CC(C)O (centres unmarked) [Compound 548, 4-amino-2-butyl-1-(2-hydroxypropyl)-7-benzenesulphonyl-1H-imidazo[4,5-c]quinoline] | 19 ± 2 pg/mL | 29 ± 2 pg/mL | 176 ± 25 pg/mL | 1456 ± 111 pg/mL
